Results published in US8211935B2, “Heterocyclic derivatives for modulation of calcium channels” (Vertex Pharmaceuticals Incorporated, priority 2004, dated 2012).

System: not given
Assay: not given
Conditions: neuropathic pain; cited from earlier work

| SMILES | patients in whom the drug works |
| --- | --- |
| NCC1(CC(=O)O)CCCCC1 [Gabapentin] | 60% |

Target: T1, CaV2.2 (Homo sapiens, UniProt Q00975)
T1 construct: expressed in transfected cells; host or cells: HEK293
Assay: VIPR optical membrane potential assay with electrical stimulation
Assay type: cell-based
Conditions: not given
How it was run: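 HEK293 cells stably expressing CaV2.2, stained with CC2-DMPE (10 μM final) and oxonol voltage-sensitive dyes, compound added with BaCl2. Membrane potential response evoked by 3-5 s electrical stimulation. Read as background-subtracted 460/580 nm emission ratio, response R=Rf/Ri, normalized to mibefradil positive and no-drug negative controls.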

T1 sequence (Q00975 whole entry): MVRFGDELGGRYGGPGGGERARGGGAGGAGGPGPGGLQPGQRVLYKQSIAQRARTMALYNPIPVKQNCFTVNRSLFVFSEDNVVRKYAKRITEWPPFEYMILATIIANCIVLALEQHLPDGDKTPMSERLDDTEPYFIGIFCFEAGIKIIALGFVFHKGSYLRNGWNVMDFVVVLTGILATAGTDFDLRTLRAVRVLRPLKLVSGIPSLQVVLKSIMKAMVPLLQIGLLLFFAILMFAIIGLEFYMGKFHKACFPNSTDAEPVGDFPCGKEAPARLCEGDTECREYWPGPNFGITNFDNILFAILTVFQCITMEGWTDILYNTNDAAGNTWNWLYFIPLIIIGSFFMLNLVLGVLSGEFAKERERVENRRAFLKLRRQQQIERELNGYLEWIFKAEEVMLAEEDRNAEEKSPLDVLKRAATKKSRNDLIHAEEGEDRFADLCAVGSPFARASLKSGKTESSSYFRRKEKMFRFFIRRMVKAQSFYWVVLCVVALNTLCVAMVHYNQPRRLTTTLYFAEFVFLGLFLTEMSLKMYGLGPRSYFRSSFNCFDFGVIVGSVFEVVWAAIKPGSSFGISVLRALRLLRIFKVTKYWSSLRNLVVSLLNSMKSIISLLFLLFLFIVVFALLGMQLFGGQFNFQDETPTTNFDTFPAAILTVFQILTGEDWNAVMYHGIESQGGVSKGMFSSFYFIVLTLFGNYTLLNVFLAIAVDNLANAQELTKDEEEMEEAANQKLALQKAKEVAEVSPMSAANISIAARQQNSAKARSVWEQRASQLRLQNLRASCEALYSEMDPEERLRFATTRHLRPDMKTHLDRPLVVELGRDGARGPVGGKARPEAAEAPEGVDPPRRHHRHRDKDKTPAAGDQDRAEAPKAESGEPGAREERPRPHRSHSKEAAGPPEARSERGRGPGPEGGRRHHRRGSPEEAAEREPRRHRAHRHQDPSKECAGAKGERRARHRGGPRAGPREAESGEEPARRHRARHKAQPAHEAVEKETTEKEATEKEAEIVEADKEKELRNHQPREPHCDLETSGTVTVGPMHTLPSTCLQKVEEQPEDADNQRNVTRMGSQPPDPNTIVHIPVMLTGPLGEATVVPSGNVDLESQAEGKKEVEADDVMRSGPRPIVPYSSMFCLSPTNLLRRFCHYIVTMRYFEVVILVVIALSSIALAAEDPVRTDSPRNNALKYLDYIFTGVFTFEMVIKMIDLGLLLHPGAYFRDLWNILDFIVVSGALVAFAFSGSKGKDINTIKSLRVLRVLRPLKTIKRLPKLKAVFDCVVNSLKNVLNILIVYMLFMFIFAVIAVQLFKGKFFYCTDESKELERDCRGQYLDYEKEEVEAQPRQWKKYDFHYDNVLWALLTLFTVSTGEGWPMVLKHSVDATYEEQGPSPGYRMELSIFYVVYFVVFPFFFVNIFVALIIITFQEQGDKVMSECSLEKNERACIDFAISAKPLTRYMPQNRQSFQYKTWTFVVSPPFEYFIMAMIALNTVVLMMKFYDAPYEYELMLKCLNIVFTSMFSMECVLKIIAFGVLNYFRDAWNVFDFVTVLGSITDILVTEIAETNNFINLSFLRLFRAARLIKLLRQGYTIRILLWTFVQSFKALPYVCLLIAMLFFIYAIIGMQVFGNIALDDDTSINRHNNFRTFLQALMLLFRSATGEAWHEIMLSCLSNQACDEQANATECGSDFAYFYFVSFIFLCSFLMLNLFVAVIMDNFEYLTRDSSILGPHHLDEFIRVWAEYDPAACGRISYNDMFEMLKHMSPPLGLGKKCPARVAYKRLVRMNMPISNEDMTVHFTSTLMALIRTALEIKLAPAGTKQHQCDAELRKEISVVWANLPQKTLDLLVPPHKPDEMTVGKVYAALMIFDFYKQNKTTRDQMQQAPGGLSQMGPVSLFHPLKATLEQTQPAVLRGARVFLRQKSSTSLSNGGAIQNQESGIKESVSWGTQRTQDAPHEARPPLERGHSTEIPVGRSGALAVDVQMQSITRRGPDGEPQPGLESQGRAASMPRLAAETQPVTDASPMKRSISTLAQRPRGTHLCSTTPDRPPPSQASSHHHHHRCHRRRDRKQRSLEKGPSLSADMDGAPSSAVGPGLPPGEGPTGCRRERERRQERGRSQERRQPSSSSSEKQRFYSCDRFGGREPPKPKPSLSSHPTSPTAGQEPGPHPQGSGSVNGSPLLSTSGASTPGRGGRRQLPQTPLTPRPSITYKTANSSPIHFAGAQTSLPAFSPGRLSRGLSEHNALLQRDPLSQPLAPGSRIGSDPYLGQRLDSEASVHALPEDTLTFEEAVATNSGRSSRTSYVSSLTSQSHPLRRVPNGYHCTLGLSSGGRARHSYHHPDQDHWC
T1 sequence (P54284 whole entry partner): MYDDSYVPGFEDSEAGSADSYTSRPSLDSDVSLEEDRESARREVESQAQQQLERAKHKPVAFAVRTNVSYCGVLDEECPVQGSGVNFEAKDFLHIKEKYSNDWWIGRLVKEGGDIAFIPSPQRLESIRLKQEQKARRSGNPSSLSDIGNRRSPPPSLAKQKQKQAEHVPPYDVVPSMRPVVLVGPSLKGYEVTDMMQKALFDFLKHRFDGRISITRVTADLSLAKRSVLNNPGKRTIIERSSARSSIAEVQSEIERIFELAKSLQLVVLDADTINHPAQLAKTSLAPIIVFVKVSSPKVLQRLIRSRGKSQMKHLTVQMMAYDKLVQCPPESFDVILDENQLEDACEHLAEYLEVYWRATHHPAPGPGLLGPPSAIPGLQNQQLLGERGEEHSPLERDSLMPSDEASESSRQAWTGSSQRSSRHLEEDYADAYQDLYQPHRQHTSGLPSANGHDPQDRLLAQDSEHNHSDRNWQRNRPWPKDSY
T1 sequence (P54289 25-946 partner limits assumed): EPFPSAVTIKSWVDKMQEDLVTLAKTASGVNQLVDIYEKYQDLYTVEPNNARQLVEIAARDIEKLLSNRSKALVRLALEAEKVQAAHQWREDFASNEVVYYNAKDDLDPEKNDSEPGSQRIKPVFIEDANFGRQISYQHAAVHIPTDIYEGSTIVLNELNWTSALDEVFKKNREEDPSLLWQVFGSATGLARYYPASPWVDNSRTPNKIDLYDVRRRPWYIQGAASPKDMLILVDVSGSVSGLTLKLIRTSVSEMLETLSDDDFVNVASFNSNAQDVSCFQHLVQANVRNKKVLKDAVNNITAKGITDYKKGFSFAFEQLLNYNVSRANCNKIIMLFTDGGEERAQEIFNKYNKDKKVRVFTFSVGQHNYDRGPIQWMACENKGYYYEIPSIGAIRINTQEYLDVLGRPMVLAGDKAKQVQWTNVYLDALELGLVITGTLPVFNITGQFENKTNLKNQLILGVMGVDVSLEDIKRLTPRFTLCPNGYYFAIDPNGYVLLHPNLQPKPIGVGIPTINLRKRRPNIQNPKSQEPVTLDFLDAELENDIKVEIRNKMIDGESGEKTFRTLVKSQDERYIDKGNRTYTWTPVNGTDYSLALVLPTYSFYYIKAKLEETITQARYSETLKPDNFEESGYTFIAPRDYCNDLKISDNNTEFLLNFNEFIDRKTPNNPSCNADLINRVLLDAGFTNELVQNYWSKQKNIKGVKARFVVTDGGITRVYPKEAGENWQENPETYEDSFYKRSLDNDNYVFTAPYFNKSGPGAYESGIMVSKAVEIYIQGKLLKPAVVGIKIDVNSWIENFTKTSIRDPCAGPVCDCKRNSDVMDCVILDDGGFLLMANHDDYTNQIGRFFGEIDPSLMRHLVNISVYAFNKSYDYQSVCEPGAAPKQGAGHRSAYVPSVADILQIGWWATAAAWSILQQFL
T1 sequence (P54289 947-1103 partner limits assumed): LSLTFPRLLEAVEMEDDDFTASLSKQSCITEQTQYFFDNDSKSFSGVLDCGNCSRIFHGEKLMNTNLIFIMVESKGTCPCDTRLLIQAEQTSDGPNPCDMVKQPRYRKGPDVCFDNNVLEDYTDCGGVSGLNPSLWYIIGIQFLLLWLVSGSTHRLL

| SMILES | IC50 |
| --- | --- |
| CC1CC(C)CN(S(=O)(=O)c2ccc3[nH]c(C(=O)N4CCC5(CC4)OCCO5)cc3c2)C1 (centres unmarked) [compound 344] | < 5 µM |

Same assay, conditions: Table 3, biological assay data; read-out: IC50

| SMILES | IC50 |
| --- | --- |
| Cc1c(C(=O)N2CCCCC2)[nH]c2ccc(S(=O)(=O)N3CC(C)CC(C)C3)cc12 (centres unmarked) [compound 440] | < 5 µM |
| O=C(NC1CC1)c1cc2cc(N(CC3CC3)S(=O)(=O)c3ccccc3)ccc2[nH]1 [compound 105] | 5 to 20 µM |
| Cc1c(C(=O)NCCCc2ccccc2)oc2ccc(S(=O)(=O)N3CC(C)CC(C)C3)cc12 (centres unmarked) [compound 56] | < 5 µM |
| CCCS(=O)(=O)n1c(C(=O)N2CCCCC2)cc2cc(S(=O)(=O)N3CC(C)CC(C)C3)ccc21 (centres unmarked) [compound 387] | < 5 µM |
| CCN(CC)S(=O)(=O)c1ccc2oc(C(=O)N3CCCCC3C)c(C)c2c1 (centres unmarked) [compound 112] | 5 to 20 µM |
| Cc1c(C(=O)NCCC2CCOCC2)oc2ccc(S(=O)(=O)N3CCCC(C)C3)cc12 (centres unmarked) [compound 467] | < 5 µM |
| Cc1ccc(CNS(=O)(=O)c2ccc3oc(C(=O)NC4CC4)c(C)c3c2)cc1 [compound 394] | < 20 µM |
| CC1CCN(C(=O)c2cc3cc(S(=O)(=O)N4CCCCCC4)ccc3[nH]2)CC1 [compound 364] | 5 to 20 µM |
| Cc1c(C(=O)N(C)Cc2ccccc2)oc2ccc(S(=O)(=O)N3CCCC(C)C3)cc12 (centres unmarked) [compound 213] | < 5 µM |
| CC1CCN(S(=O)(=O)c2ccc3[nH]c(C(=O)N4CC(C)CC(C)C4)cc3c2)CC1 (centres unmarked) [compound 319] | 5 to 20 µM |
| Cc1c(C(=O)N(C)Cc2ccccc2)[nH]c2ccc(S(=O)(=O)N3CCC(C)CC3)cc12 [compound 206] | < 5 µM |
| CNC(=O)c1cc2cc(S(=O)(=O)N3CC(C)CC(C)C3)ccc2o1 (centres unmarked) [compound 454] | < 5 µM |
| CC1CCN(S(=O)(=O)c2ccc3oc(C(=O)N4CCCC4)cc3c2)CC1 [compound 231] | 5 to 20 µM |
| CCCCN(C)C(=O)c1oc2ccc(S(=O)(=O)N3CCCC(C)C3)cc2c1C (centres unmarked) [compound 369] | < 5 µM |
| CCN(CC)S(=O)(=O)c1ccc2oc(C(=O)NC3CCCC3)c(C)c2c1 [compound 87] | < 5 µM |
| Cc1c(C(=O)NCc2ccccc2)[nH]c2ccc(S(=O)(=O)N3CCC(C)CC3)cc12 [compound 120] | < 5 µM |
| CC1CC(C)CN(C(=O)c2cc3cc(S(=O)(=O)N4CC(C)CC(C)C4)ccc3o2)C1 (centres unmarked) [compound 29] | < 5 µM |
| Cc1ccc(NS(=O)(=O)c2ccc3oc(C(=O)NC4CC4)c(C)c3c2)cc1 [compound 288] | 5 to 20 µM |
| CC1CCN(S(=O)(=O)c2ccc3oc(C(=O)N(C)Cc4ccccc4)cc3c2)CC1 [compound 433] | < 5 µM |
| CCN1CCN(C(=O)c2oc3ccc(S(=O)(=O)N4CCCCCC4)cc3c2C)CC1 [compound 70] | 5 to 20 µM |
| COc1ccc(S(=O)(=O)n2c(C(=O)N3CCCCC3)cc3cc(S(=O)(=O)N4CC(C)CC(C)C4)ccc32)cc1 (centres unmarked) [compound 292] | < 5 µM |
| CCNC(=O)c1[nH]c2ccc(S(=O)(=O)N3CC(C)CC(C)C3)cc2c1C (centres unmarked) [compound 221] | 5 to 20 µM |
| CC1CCN(S(=O)(=O)c2ccc3[nH]c(C(=O)NCCc4ccccc4)cc3c2)CC1 [compound 340] | < 5 µM |

| SMILES | IC50 |
| --- | --- |
| Cc1c(C(=O)NC2CCCCC2)oc2ccc(S(=O)(=O)N3CC(C)CC(C)C3)cc12 (centres unmarked) [compound 62] | < 5 µM |
| CCOC(=O)N1CCN(C(=O)c2cc3cc(S(=O)(=O)N4CCC(C)CC4)ccc3o2)CC1 [compound 158] | < 20 µM |
| Cc1c(C(=O)N2CCCC(C)C2)oc2ccc(S(=O)(=O)N3CCCCC3)cc12 (centres unmarked) [compound 280] | 5 to 20 µM |
| CC1CCN(S(=O)(=O)c2ccc3[nH]cc(C(=O)NC4CC4)c3c2)CC1 [compound 434] | < 20 µM |
| CC1CCN(S(=O)(=O)c2ccc3cc(C(=O)N(C)C)[nH]c3c2)CC1 [compound 380] | < 20 µM |
| Cc1c(C(=O)NC2CC2)oc2ccc(S(=O)(=O)Nc3ccc(F)cc3)cc12 [compound 228] | < 20 µM |
| CCCCN(C)C(=O)c1cc2cc(S(=O)(=O)N3CC(C)CC(C)C3)ccc2[nH]1 (centres unmarked) [compound 377] | < 5 µM |
| Cc1c(C(=O)N2CCc3ccccc3C2)oc2ccc(S(=O)(=O)N3CCCCC3)cc12 [compound 462] | < 5 µM |
| CC1CCN(S(=O)(=O)c2ccc3oc(C(=O)NCCCc4ccccc4)cc3c2)CC1 [compound 90] | < 5 µM |
| Cc1c(C(=O)N2CCCCC2)oc2ccc(S(=O)(=O)N3CCC(C)CC3)cc12 [compound 460] | 5 to 20 µM |
| Cc1c(C(=O)NC2CCCCC2C)oc2ccc(S(=O)(=O)N3CCCC3)cc12 (centres unmarked) [compound 132] | < 20 µM |
| CC1CCN(S(=O)(=O)c2ccc3oc(C(=O)N4CCCCCC4)cc3c2)CC1 [compound 246] | < 5 µM |
| CC1CC(C)CN(S(=O)(=O)c2ccc3c(c2)cc(C(=O)N2CCCCC2)n3S(=O)(=O)c2ccc(F)cc2)C1 (centres unmarked) [compound 107] | < 5 µM |
| CC1CCN(S(=O)(=O)c2ccc3oc(C(=O)N(C(C)C)C(C)C)cc3c2)CC1 [compound 138] | < 5 µM |
| Cc1c(C(=O)N2CCCCC2C)[nH]c2ccc(S(=O)(=O)N3CC(C)CC(C)C3)cc12 (centres unmarked) [compound 297] | < 5 µM |
| O=C(NCCC1CCOCC1)c1cc2cc(S(=O)(=O)N3CCCCCC3)ccc2o1 [compound 23] | < 5 µM |
| Cc1c(C(=O)NCc2ccc(F)cc2)oc2ccc(S(=O)(=O)N3CCC(C)CC3)cc12 [compound 154] | 5 to 20 µM |
| CCCCN(C)C(=O)c1cc2cc(S(=O)(=O)N3CCCCCC3)ccc2o1 [compound 113] | < 5 µM |
| COc1ccccc1CNC(=O)c1oc2ccc(S(=O)(=O)N3CCOCC3)cc2c1C [compound 167] | < 20 µM |
| CCN(CC)C(=O)c1oc2ccc(S(=O)(=O)N3CCCCCC3)cc2c1C [compound 92] | 5 to 20 µM |
| Cc1c(C(=O)N2CCCC2)[nH]c2ccc(S(=O)(=O)N3CCC(C)CC3)cc12 [compound 457] | 5 to 20 µM |
| CCN(CC)C(=O)c1cc2cc(S(=O)(=O)N3CC(C)CC(C)C3)ccc2[nH]1 (centres unmarked) [compound 196] | < 5 µM |
| Cc1c(C(=O)N(C)Cc2ccccc2)[nH]c2ccc(S(=O)(=O)N3CC(C)CC(C)C3)cc12 (centres unmarked) [compound 373] | < 5 µM |

| SMILES | IC50 |
| --- | --- |
| O=C(NC1CCCCC1)c1cc2cc(S(=O)(=O)N3CCCCCC3)ccc2o1 [compound 427] | < 5 µM |
| O=C(NC1CC1)c1cc2cc(N(Cc3ccccc3)S(=O)(=O)c3ccccc3)ccc2[nH]1 [compound 66] | 5 to 20 µM |
| CC1CC(C)CN(S(=O)(=O)c2ccc3[nH]c(C(=O)NCCc4ccccc4)cc3c2)C1 (centres unmarked) [compound 289] | < 5 µM |
| Cc1c(C(=O)N2CCOCC2)oc2ccc(S(=O)(=O)N3CCC(C)CC3)cc12 [compound 359] | 5 to 20 µM |
| O=C(c1cc2cc(S(=O)(=O)N3CCCCCC3)ccc2[nH]1)N1CCCCC1 [compound 354] | 5 to 20 µM |
| CC1CCN(S(=O)(=O)c2ccc3[nH]c(C(=O)NCc4ccccc4)cc3c2)CC1 [compound 36] | < 5 µM |
| O=C(NCCc1ccccc1)c1cc2cc(S(=O)(=O)N3CCCCCC3)ccc2[nH]1 [compound 248] | < 5 µM |
| Cc1c(C(=O)NCC2CCOCC2)oc2ccc(S(=O)(=O)N3CC(C)CC(C)C3)cc12 (centres unmarked) [compound 242] | < 5 µM |
| CCN(CC)C(=O)c1cc2cc(S(=O)(=O)N3CCCCCC3)ccc2[nH]1 [compound 46] | < 5 µM |
| CCOC(=O)N1CCN(C(=O)c2[nH]c3ccc(S(=O)(=O)N4CC(C)CC(C)C4)cc3c2C)CC1 (centres unmarked) [compound 439] | < 5 µM |
| CN(c1ccc2[nH]c(C(=O)NC3CC3)cc2c1)S(=O)(=O)c1ccccc1 [compound 312] | 5 to 20 µM |
| CCN(CC)S(=O)(=O)c1ccc2oc(C(=O)NCc3ccc(C)cc3)c(C)c2c1 [compound 298] | 5 to 20 µM |
| CC1CC(C)CN(S(=O)(=O)c2ccc3[nH]c(C(=O)NCCC4CCOCC4)cc3c2)C1 (centres unmarked) [compound 405] | < 5 µM |
| Cc1c(C(=O)N2CC(C)CC(C)C2)oc2ccc(S(=O)(=O)N3CCC(C)CC3)cc12 (centres unmarked) [compound 33] | 5 to 20 µM |
| Cc1c(C(=O)N2CCCCC2)oc2ccc(S(=O)(=O)N3CCCC(C)C3)cc12 (centres unmarked) [compound 300] | < 5 µM |
| Cc1c(C(=O)NCC2CCCO2)oc2ccc(S(=O)(=O)N3CCCCC3)cc12 (centres unmarked) [compound 352] | 5 to 20 µM |
| O=C(NC1CC1)c1cc2cc(NS(=O)(=O)C3CC3)ccc2[nH]1 [compound 71] | < 20 µM |
| CCN(CC)C(=O)c1cc2cc(S(=O)(=O)N3CC(C)CC(C)C3)ccc2n1CCCN1CCN(C)CC1 (centres unmarked) [compound 374] | < 5 µM |
| CC1CC(C)CN(S(=O)(=O)c2ccc3oc(C(=O)N(C(C)C)C(C)C)cc3c2)C1 (centres unmarked) [compound 137] | < 5 µM |
| CCNC(=O)c1cc2cc(S(=O)(=O)N3CCCCCC3)ccc2o1 [compound 265] | 5 to 20 µM |
| O=C(NCCc1ccccc1)c1cc2cc(S(=O)(=O)N3CCCCCC3)ccc2o1 [compound 48] | < 5 µM |
| Cc1c(C(=O)NCC2CCCO2)[nH]c2ccc(S(=O)(=O)N3CCC(C)CC3)cc12 (centres unmarked) [compound 355] | 5 to 20 µM |
| Cc1c(C(=O)NC2CCCc3ccccc32)oc2ccc(S(=O)(=O)N3CCOCC3)cc12 (centres unmarked) [compound 109] | < 20 µM |
